≈ marks a conversion by molar mass, not a printed value. Calls of active or inactive are those of the source. The rule behind the calls is not given here.
Assays:
HEK293 = assay: Inhibition of methionine aminopeptidase in HEK293 cells assessed as increase in ratio of unprocessed 14-3-3gamma to total 14-3-3gamma at 0.1 uM after 24 hrs by immunoblotting analysis relative to DMSO-treated control; assay type: cell-based; settings: Homo sapiens
HeLa [1] = assay: Inhibition of methionine aminopeptidase in human HeLa cells assessed as increase in ratio of unprocessed 14-3-3gamma to total 14-3-3gamma at 0.1 uM after 24 hrs by immunoblotting analysis relative to DMSO-treated control; assay type: cell-based
E6-1 = assay: Inhibition of methionine aminopeptidase in human Jurkat E6-1 cells assessed as increase in ratio of unprocessed 14-3-3gamma to total 14-3-3gamma at 0.1 uM after 24 hrs by immunoblotting analysis relative to DMSO-treated control; assay type: cell-based
HUVEC [2] = assay: Inhibition of methionine aminopeptidase in HUVEC assessed as accumulation of unprocessed 14-3-3gamma at 10 nM after 24 hrs by immunoblotting analysis; assay type: cell-based; settings: Homo sapiens
Homo sapiens = species on record: Homo sapiens; assay: Inhibition of methionine aminopeptidase in HUVEC assessed as increase in ratio of unprocessed 14-3-3gamma to total 14-3-3gamma at 0.1 uM after 24 hrs by immunoblotting analysis relative to control
HUVEC [3] = assay: Inhibition of methionine aminopeptidase in HUVEC assessed as increase in unprocessed 14-3-3gamma level at 0.1 to 10 uM by immunoblotting analysis; assay type: cell-based; settings: Homo sapiens
HUVEC [4] = assay: Inhibition of methionine aminopeptidase in HUVEC assessed as increase in unprocessed 14-3-3gamma level at 0.1 to 10 uM by immunoblotting analysis in presence of cycloheximide; assay type: cell-based; settings: Homo sapiens
MCF7 = assay: Inhibition of methionine aminopeptidase in human MCF7 cells assessed as increase in ratio of unprocessed 14-3-3gamma to total 14-3-3gamma at 0.1 uM after 24 hrs by immunoblotting analysis relative to DMSO-treated control; assay type: cell-based
PC-3 = assay: Inhibition of methionine aminopeptidase in human PC3 cells assessed as increase in ratio of unprocessed 14-3-3gamma to total 14-3-3gamma at 0.1 uM after 24 hrs by immunoblotting analysis relative to DMSO-treated control; assay type: cell-based
HeLa [5] = assay: Antiproliferative activity against human HeLa cells after 30 hrs by [3H]-thymidine incorporation assay; assay type: functional, cell-based
[6] = Antiproliferative activity against HDFa cells after 30 hrs by [3H]-thymidine incorporation assay; assay type: functional, cell-based, Homo sapiens
HUVEC [7] = assay: Antiproliferative activity against HUVEC after 30 hrs by [3H]-thymidine incorporation assay; assay type: functional, cell-based, Homo sapiens
[8] = molecular target: T1, Methionine aminopeptidase 1 (Homo sapiens, UniProt P53582); assay: Inhibition of human methionine aminopeptidase 1 up to 250 uM
[9] = molecular target: T1, Methionine aminopeptidase 1; assay: Inhibition of human methionine aminopeptidase 1 in presence of Co2+
[10] = molecular target: T1, Methionine aminopeptidase 1; assay: Inhibition of human methionine aminopeptidase 1 in presence of Zn2+
[11] = molecular target: T1, Methionine aminopeptidase 1; assay: Inhibition of human methionine aminopeptidase 1 in presence of Mn2+
[12] = molecular target: Methionine aminopeptidase 2 (Homo sapiens, UniProt P50579); assay: Inhibition of human methionine aminopeptidase 2 in presence of Mn2+
[13] = Antiproliferative activity against HDFa cells at 30 uM after 30 hrs by [3H]-thymidine incorporation assay relative to control; assay type: functional, Homo sapiens
HDFa = assay: Antiproliferative activity against HDFa cells at 10 uM after 30 hrs by [3H]-thymidine incorporation assay; assay type: functional, cell-based; settings: Homo sapiens
HUVEC [14] = assay: Cytotoxicity against HUVEC at 10 uM after 24 hrs; assay type: cell-based; settings: human
[15] = Solubility of the compound; assay type: physicochemical
HUVEC [16] = assay: Antiproliferative activity against HUVEC at 30 uM after 30 hrs by [3H]-thymidine incorporation assay relative to control; assay type: functional, Homo sapiens
HUVEC [17] = assay: Inhibition of methionine aminopeptidase in HUVEC assessed as accumulation of unprocessed 14-3-3gamma at 1 nM after 24 hrs by immunoblotting analysis; assay type: cell-based; settings: Homo sapiens
[18] = molecular target: T1, Methionine aminopeptidase 1; assay: Inhibition of methionine aminopeptidase 1 in HEK293 cells expressing 3xFLAG-tagged BTF3 assessed as increase in [35S]-Met in solution at 100 nM after 30 mins by scintillation counting analysis; assay type: cell-based

Sequence of Methionine aminopeptidase 2 (P50579 whole entry): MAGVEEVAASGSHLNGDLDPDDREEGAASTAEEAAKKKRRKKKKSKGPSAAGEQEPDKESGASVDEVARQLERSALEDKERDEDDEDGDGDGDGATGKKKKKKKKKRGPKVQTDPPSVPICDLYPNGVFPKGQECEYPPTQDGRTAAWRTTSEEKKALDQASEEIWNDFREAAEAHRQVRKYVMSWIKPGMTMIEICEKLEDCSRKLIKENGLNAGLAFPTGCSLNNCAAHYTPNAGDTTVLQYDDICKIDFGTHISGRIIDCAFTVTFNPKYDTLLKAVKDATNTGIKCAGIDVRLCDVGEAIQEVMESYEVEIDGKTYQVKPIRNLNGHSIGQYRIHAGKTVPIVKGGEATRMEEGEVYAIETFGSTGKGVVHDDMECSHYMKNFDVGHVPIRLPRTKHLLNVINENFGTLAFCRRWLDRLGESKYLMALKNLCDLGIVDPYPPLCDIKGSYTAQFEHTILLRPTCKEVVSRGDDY

CCCCCCCCCCCCCC(=O)O[C@H]1CC[C@H](NC(=O)[C@H](OC)[C@H](O)[C@@H](O)[C@H](O)/C=C/C(C)C)C(=O)NC1
Ratio (HEK293): 2.1
Ratio (HeLa [1]): 2.3
Ratio (E6-1): 1.4
inhibition (HUVEC [2]): Active
Ratio (Homo sapiens): 8.1
inhibition (HUVEC [3]): Active
inhibition (HUVEC [4]): inactive

CCCCCCCCCCCCCC(=O)O[C@H]1CC[C@H](NC(=O)[C@H](OC)[C@H](O)[C@@H](O)[C@H](O)/C=C/C(C)C)C(=O)N(C)C1
Ratio (MCF7): 2.6
Ratio (PC-3): 2.1

CC(C)(C)OC(=O)Nc1cccnc1C(=O)Nc1nccs1
EC50 (HeLa [5]; Homo sapiens, HeLa): 2.3 µM
EC50 (HeLa [5]; hela): 2 µM
EC50 ([6]; Homo sapiens, HDFa): 0.79 µM
EC50 ([6]; hdfa): 0.65 µM
EC50 (HUVEC [7]; Homo sapiens, HUVEC): 2 µM
EC50 (HUVEC [7]; huvec): 1.5 µM

c1ccc2[nH]c(-c3cscn3)nc2c1 [THIABENDAZOLE]
EC50 ([6]; Homo sapiens, HDFa): > 250 µM
EC50 (HUVEC [7]; Homo sapiens, HUVEC): > 250 µM
inhibition [8]: inactive
EC50 [9]: 3.4 µM
EC50 [10]: > 250 µM
EC50 [11]: > 100 µM

CN1CCN(c2cc(-c3ccccn3)nc3ccccc23)CC1
EC50 [12]: > 100 µM
EC50 [9]: 0.87 µM
EC50 [11]: > 100 µM

c1ccc(-c2ccccn2)nc1
EC50 ([6]; Homo sapiens, HDFa): 10 µM
Activity [13]: 94%
Activity (HDFa): inactive

Cc1nc(-c2ccc(Cl)cn2)nc(NC[C@@H](NCCCCc2ccccc2)c2ccccc2)c1Cl
EC50 (HeLa [5]; Homo sapiens, HeLa): 0.97 µM
EC50 ([6]; Homo sapiens, HDFa): 0.76 µM
Activity (HUVEC [14]): Toxic
solubility [15]: 40 µM (≈ 20.3 µg/mL)

c1ccc(-c2nc(N3CCCCC3)c3ccccc3n2)nc1
EC50 [12]: > 100 µM
EC50 [9]: 0.11 µM
EC50 [11]: 7.6 µM

Clc1nc(-c2ccccn2)nc2ccccc12
EC50 [12]: > 100 µM
EC50 [9]: 1.5 µM
EC50 [11]: > 100 µM

c1ccc(NCCNc2nc(-c3ccccn3)nc3ccccc23)cc1
EC50 [12]: > 300 µM
EC50 [9]: 1.6 µM
EC50 [11]: > 100 µM

c1ccc(-c2cc(N3CCOCC3)c3ccccc3n2)nc1
EC50 [12]: > 100 µM
EC50 [9]: 0.41 µM
EC50 [11]: > 100 µM

c1ccc(-c2nc(N3CCOCC3)c3ccccc3n2)nc1
EC50 [12]: > 100 µM
EC50 [9]: 0.049 µM
EC50 [11]: 41 µM

Cc1nc(-c2ccccn2)nc(NCCNc2ccc(C(F)(F)F)cn2)c1Cl
EC50 (HeLa [5]; Homo sapiens, HeLa): 10 µM
EC50 ([6]; Homo sapiens, HDFa): 1.9 µM
EC50 (HUVEC [7]; Homo sapiens, HUVEC): 4.3 µM
solubility [15]: 40 µM (≈ 16.4 µg/mL)

c1ccc(-c2cc(N3CCCCC3)c3ccccc3n2)nc1
EC50 [12]: > 100 µM
EC50 [9]: 0.39 µM
EC50 [11]: > 100 µM

c1ccc(CCNc2nc(-c3ccccn3)nc3ccccc23)cc1
EC50 [12]: > 100 µM
EC50 [9]: 0.94 µM
EC50 [11]: 24 µM

Cc1nc(-c2ccccn2)nc(NCCc2ccccc2)c1Cl
EC50 (HeLa [5]; Homo sapiens, HeLa): 7.1 µM
EC50 ([6]; Homo sapiens, HDFa): 3.6 µM
EC50 (HUVEC [7]; Homo sapiens, HUVEC): 11 µM
Activity (HUVEC [16]): >90%
solubility [15]: 90 µM (≈ 29.2 µg/mL)

CO[C@@H]1[C@H](OC(=O)NC(=O)CCl)CC[C@]2(CO2)[C@H]1[C@@]1(C)O[C@@H]1CC=C(C)C
inhibition (HUVEC [17]): Active
inhibition (HUVEC [3]): Active
inhibition (HUVEC [4]): inactive
inhibition [18]: inactive

— ChEMBL document CHEMBL2375230 (J Med Chem, 2013)
